# Assay results: patent US20230210861A1 (priority 2020, published 2023)
# “And” between values parts separate entries of the source, which are not always exact repeats. Equal entries are not always repeated. “Also recorded” adds a separate entry of the source. Structures can show the parent of a compound that is named as a salt.
# Legend:
# human alpha3beta4 nAChR [1] = target: T1, human alpha3beta4 nAChR (Homo sapiens, UniProt P30926+P32297); test: Agonist activity at human alpha3beta4 nAChR expressed in Xenopus oocytes (two-electrode voltage clamp); assay type: cell-based; details: for agonist character at nAChR alpha3beta4: in words
# T1 sequence (P32297 32-505): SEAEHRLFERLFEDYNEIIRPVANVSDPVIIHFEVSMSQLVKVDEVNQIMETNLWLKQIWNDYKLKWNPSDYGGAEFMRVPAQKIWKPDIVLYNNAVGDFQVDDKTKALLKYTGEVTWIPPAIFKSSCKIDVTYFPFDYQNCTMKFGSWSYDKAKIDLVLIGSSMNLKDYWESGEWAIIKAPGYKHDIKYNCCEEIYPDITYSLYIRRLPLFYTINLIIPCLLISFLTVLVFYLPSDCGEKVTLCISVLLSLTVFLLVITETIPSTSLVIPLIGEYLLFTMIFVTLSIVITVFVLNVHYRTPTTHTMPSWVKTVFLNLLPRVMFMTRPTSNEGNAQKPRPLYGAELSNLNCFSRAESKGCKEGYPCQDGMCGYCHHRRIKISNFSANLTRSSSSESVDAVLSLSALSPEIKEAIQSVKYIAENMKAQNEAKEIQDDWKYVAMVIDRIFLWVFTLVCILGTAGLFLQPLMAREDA
# T1 sequence (P30926 22-498): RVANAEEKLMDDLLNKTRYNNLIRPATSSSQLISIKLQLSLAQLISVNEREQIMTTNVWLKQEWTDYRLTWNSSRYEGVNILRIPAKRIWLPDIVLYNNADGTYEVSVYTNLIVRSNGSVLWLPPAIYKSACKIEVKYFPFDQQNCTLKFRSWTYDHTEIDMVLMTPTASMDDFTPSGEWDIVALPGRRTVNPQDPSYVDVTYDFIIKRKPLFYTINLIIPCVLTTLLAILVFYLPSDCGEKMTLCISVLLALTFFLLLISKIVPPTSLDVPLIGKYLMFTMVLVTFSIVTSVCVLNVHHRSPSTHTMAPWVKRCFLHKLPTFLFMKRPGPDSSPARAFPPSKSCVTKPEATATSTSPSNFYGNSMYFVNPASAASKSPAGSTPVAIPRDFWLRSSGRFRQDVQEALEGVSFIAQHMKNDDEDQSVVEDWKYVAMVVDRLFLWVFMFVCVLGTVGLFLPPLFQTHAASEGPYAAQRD
# Description: (§1) Agonist Preparation: See Example 1.
# human alpha4beta2 nAChR [2] = target: T2, human alpha4beta2 nAChR (Homo sapiens, UniProt P17787+P43681); test: Agonist activity at human alpha4beta2 nAChR expressed in Xenopus oocytes (two-electrode voltage clamp); assay type: cell-based; details: for agonist character at nAChR alpha4beta2: in words; for effect on the subsequent ACh-evoked current, alpha4beta2: after the agonist concentration series
# T2 sequence (P43681 29-627 limits assumed): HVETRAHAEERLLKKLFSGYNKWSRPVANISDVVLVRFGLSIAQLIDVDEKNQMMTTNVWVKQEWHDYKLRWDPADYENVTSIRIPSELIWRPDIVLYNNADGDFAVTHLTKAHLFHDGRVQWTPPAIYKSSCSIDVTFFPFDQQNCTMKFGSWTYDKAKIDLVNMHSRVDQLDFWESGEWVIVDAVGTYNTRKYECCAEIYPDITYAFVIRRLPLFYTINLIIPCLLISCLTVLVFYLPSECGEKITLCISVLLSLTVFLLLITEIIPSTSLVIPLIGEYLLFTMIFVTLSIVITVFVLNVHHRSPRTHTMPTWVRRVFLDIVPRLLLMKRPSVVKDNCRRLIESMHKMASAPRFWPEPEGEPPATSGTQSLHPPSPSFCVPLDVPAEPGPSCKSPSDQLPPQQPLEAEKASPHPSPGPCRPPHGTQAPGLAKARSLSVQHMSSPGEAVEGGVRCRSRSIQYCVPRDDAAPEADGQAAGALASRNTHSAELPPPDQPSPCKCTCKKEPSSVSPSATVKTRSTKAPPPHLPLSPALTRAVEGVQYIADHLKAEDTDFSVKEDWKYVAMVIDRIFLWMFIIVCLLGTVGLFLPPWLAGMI
# T2 sequence (P17787 26-502): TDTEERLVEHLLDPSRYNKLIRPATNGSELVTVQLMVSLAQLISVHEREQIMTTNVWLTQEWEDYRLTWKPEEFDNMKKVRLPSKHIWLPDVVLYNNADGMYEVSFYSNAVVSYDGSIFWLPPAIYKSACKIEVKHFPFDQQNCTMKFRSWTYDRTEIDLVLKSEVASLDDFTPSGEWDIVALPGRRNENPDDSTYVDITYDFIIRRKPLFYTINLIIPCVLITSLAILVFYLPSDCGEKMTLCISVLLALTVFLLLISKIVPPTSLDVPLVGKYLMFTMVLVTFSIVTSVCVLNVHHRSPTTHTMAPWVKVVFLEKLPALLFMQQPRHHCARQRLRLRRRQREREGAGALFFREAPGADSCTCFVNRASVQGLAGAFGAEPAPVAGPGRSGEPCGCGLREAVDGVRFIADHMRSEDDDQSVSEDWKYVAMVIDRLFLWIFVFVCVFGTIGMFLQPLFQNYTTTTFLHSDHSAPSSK
# Description: as §1
# human alpha7 nAChR [3] = target: T3, human alpha7 nAChR (Homo sapiens, UniProt P36544); test: Agonist activity at human alpha7 nAChR expressed in Xenopus oocytes (two-electrode voltage clamp); assay type: cell-based; details: for agonist character at nAChR alpha7: in words
# T3 sequence (P36544 23-502): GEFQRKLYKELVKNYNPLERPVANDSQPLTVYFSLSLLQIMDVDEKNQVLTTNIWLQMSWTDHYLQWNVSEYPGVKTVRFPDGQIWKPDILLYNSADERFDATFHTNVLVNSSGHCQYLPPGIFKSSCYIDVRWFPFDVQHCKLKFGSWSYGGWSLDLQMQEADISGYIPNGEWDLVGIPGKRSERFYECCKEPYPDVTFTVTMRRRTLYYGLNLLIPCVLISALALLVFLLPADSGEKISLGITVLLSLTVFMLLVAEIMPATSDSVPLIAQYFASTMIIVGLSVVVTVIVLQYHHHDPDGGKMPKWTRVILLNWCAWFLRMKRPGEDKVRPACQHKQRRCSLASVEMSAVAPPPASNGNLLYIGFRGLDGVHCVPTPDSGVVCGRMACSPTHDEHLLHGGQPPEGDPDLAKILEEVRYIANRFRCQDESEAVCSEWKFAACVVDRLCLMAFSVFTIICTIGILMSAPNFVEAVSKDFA
# Description: as §1
# [4] = target: human alpha4alpha6beta2 nAChR (Homo sapiens, UniProt P17787+P43681+Q15825); test: Agonist activity at human alpha4alpha6beta2 nAChR expressed in Xenopus oocytes (two-electrode voltage clamp); assay type: cell-based; details: for agonist character at nAChR alpha4alpha6beta2: in words
# human alpha4alpha6beta2 nAChR, sequence (P43681 29-627 limits assumed): as the sequence (P43681 29-627 limits assumed) above
# human alpha4alpha6beta2 nAChR, sequence (Q15825 26-494): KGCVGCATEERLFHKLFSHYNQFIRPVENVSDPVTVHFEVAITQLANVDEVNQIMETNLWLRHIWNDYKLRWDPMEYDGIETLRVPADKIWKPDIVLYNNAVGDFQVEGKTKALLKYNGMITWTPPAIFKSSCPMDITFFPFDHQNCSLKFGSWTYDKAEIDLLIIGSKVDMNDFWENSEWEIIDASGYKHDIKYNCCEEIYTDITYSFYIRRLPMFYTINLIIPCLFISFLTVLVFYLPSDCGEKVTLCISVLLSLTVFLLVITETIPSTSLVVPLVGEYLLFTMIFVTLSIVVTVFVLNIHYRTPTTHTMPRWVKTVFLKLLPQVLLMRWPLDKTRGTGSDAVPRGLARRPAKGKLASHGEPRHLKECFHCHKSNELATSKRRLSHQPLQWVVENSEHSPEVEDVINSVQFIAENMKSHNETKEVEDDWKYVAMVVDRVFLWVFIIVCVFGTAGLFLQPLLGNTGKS
# human alpha4alpha6beta2 nAChR, sequence (P17787 26-502): as the sequence (P17787 26-502) above
# Description: as §1
# [5] = target: nAChR subtype alpha6beta2 (Homo sapiens, UniProt P17787+Q15825); details: in words; no experiment described; cited from earlier work
# nAChR subtype alpha6beta2, sequence (Q15825 26-494): as the sequence (Q15825 26-494) above
# nAChR subtype alpha6beta2, sequence (P17787 26-502): as the sequence (P17787 26-502) above
# [6] = target: T4, human alpha3alpha5beta4 nAChR (Homo sapiens, UniProt P30926+P32297); test: Agonist activity at human alpha3alpha5beta4 nAChR expressed in Xenopus oocytes (two-electrode voltage clamp); details: for agonist character at nAChR alpha3alpha5beta4: in words; for EC50: EC50 at nAChR alpha3alpha5beta4, test concentrations 0.1-300 uM
# T4 sequence (P32297 32-505): as the sequence (P32297 32-505) above
# T4 sequence (P30532 23-468 partner): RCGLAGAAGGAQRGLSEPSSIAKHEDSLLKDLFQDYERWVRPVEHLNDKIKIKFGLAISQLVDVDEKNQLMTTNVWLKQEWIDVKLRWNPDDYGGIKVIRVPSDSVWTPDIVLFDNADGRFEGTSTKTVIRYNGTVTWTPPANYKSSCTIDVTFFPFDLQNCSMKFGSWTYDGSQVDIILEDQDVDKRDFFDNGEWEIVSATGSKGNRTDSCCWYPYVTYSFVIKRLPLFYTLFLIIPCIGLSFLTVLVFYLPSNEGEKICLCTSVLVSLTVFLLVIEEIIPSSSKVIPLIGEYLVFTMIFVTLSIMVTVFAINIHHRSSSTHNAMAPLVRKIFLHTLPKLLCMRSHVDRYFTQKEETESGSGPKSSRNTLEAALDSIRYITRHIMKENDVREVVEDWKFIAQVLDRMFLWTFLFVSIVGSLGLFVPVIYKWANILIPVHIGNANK
# T4 sequence (P30926 22-498): as the sequence (P30926 22-498) above
# Experimental: (§2) All experiments were carried out at human nAChRs expressed in Xenopus oocytes using the method of cDNA expression. Xenopus oocytes were prepared and injected using standard procedures.
# Briefly, ovaries were harvested from Xenopus Laevis females that have been deeply anesthetized by cooling at 4° C. and Tricaine methanesulfonate (MS-222 at a concentration of 150 mg/L) in sodium bicarbonate (300 mg/L). Once anesthetized the animal was decapitated and pithed following the rules of animal rights from the Geneva canton. A small piece of ovary was isolated for immediate preparation while the remaining part was placed at 4° C. in a sterile Barth solution containing in mM NaCl 88, KCl 1, NaHCO3 2.4, HEPES 10, MgSO4·7H2O 0.82, Ca(NO3)2·4H2O 0.33, CaCl2·6H2O 0.41, at pH 7.4, and supplemented with 20 ug/ml of kanamycin, 100 unit/ml penicillin. All recordings were performed at 18° C. and cells superfused with OR2 medium containing in mM: NaCl 88, KCl 2.5, HEPES 5, CaCl2·2H2O 1.8, MgCl2·6H2O 1, pH 7.4.
# (§3) Currents evoked by ACh or other agonists were recorded using an automated process equipped with standard two-electrode voltage-clamp configuration (TEVC). Data were captured and analyzed using a HiQScreen proprietary data acquisition and analysis software running under Matlab (Mathworks Inc.).
# ACh was prepared as a concentrated stock solution (10^−1M) in water and then diluted in the recording medium to obtain the desired test concentration. Compounds were dissolved in OR2 as stock solution (1 mM) and the final dilution to the desired concentration was made on the day of the experiment. OR2 medium contains in mM: NaCl 88.5, KCl 2.5, HEPES 5, CaCl2·2H2 1.8, MgCl2·6H2 1, pH 7.4.
# The test concentration of acetylcholine chloride was 1280 uM.
# (§4) Injections of cDNAs encoding for the human alpha3beta4, alpha3alpha5beta4, alpha4beta2, and alpha7 were performed in at least 95 oocytes were performed using a proprietary automated injection and receptor expression examined at least two days later. Oocytes were poked with two electrodes and their membrane potential maintained, unless indicated, at −80 mV throughout the experiment.
# A protocol to determine agonistic activity in the oocytes expressing the nAChRs was developed. The cells were exposed to a series of increasing concentrations of a compound agonist for 10 seconds each at two minute intervals. The current evoked from exposure to the agonist at each concentration was recorded. For oocytes expressing alpha7 nAChRs, exposure to the agonist was reduced to 5 seconds. This process was repeated for each agonist tested against each type of nAChR expressing cell.
# Experimental Procedures: Injections of cDNAs encoding for the human alpha3beta4, alpha3alpha5beta4, alpha4beta2, alpha4alpha6beta2, and alpha7 were performed in at least 95 oocytes using a proprietary automated injection device. Cellular receptor expression was examined at least two days later. Oocytes were poked with two electrodes and their membrane potential maintained, unless indicated, at −80 mV throughout the experiment.
# A protocol to determine agonistic activity in the oocytes expressing the nAChRs was developed. Oocytes expressing a nAChR subtype were exposed to a brief test pulse of acetylcholine (1280 uM) while the holding current and response was evaluated. Cells displaying robust currents were washed for 90 seconds. The cells were then exposed to a series of increasing concentrations of a nAChR agonist for 10 seconds each at two minute intervals. The nAChR agonist test concentrations were 0.1, 0.3, 1, 3, 10, 30, 100, 300 (uM). The current evoked from exposure to the agonist at each concentration was recorded.
# Caco-2 cells = test: Caco-2 cell viability, CellTiter-Glo assay; assay type: cell-based, human
# Experimental: In parallel, cell viability in the presence of varenicline tartrate and/or copper chloride was determined using CellTiter-Glo assay (Promega), which measures intracellular adenosine triphosphate levels.
# Cells treated with DMSO (solvent control) served as controls. Following incubation, […] of CellTiter-Glo substrate was added to each well and the samples were incubated for 10 min on a rocking platform. Following this 10 min incubation, luminescence was recorded using a POLAR star OPTIMA plate reader (BMG Labtech). Samples were run in triplicate and data is normalized with mean luminescence of DMSO only treated cells as 100% viability.
# All statistical analyses were performed using GraphPad Prism (version 9, GraphPad Software, Inc.).
# SARS-CoV-2 = test: Infection of Caco-2 cells after exposure to SARS-CoV-2 (plaque titration of supernatant); details: for percentage of Caco-2 cells infected with SARS-CoV-2, concentration dependence: 24 hours after exposure, MOI of 3, versus vehicle control, in words
# human alpha3beta4 nAChR [7] = target: T1, human alpha3beta4 nAChR; test: Desensitization / antagonistic activity, cumulative exposure in the low concentration range, alpha3beta4 in Xenopus oocytes; assay type: cell-based; details: concentrations up to 300 nM, in words
# human alpha3beta4 nAChR [8] = target: T1, human alpha3beta4 nAChR; test: Sustained exposure to 300 uM varenicline tartrate and its recovery, alpha3beta4; assay type: cell-based; details: 300 uM applied during three minutes; in words
# [9] = target: T4, human alpha3alpha5beta4 nAChR; test: Desensitization / antagonistic activity, cumulative exposure in the low concentration range, alpha3alpha5beta4 in Xenopus oocytes; assay type: cell-based; details: concentrations up to 300 nM; in words; dihydrate
# human alpha4beta2 nAChR [10] = target: T2, human alpha4beta2 nAChR; test: Desensitization / antagonistic activity, cumulative exposure in the low concentration range, alpha4beta2 in Xenopus oocytes; assay type: cell-based; details: concentrations up to 300 nM; in words; dihydrate
# human alpha7 nAChR [11] = target: T3, human alpha7 nAChR; test: Desensitization / antagonistic activity, cumulative exposure in the low concentration range, alpha7 in Xenopus oocytes; assay type: cell-based; details: concentrations up to 300 nM; in words; dihydrate
# Experimental: as §2, §3, §4
# [12] = Pharmacokinetics in human subjects after 28 days of intranasal administration of Compound 1 hemigalactarate salt (Example 5); assay type: in vivo
# Experimental: Blood plasma for the patients was collected on Day 29 predose (time 0) and after a series of time points (10 min, 20 min, 30 min, 1 hr, 2 hrs, 4 hrs, 5 hrs, 6 hrs, 7 hrs, 8 hrs, and 24 hrs) after a single administration of drug. The blood plasma was analyzed for Compound 1.
# The following pharmacokinetic parameters for Compound 1 were calculated: • Cmax: Maximum observed concentration, observed by inspection of individual study participant plasma concentration time plots. • Tmax: Time of maximum observed concentration, obtained directly from the observed concentration time data. • AUClast: The area under the plasma concentration time curve, from time 0 to the last measurable non-zero concentration, calculated by a combination of linear and logarithmic trapezoidal methods (Linear up/log down method). • AUC0-4 h: The area under the plasma concentration time curve, from time 0 to the 4 h time point, calculated by a combination of linear and logarithmic trapezoidal methods (Linear up/log down method). • AUCinf: The area from zero time (pre-dose) extrapolated to infinite time (AUCinf) will be calculated as follows: AUCinf=AUClast+Cz/λz • AUC % Extrap: The percentage of AUCinf obtained by extrapolation (AUC % Extrap) will be calculated as follows: […]
# [13] = target: nAChR subtype alpha3beta2 (Homo sapiens, UniProt P17787+P32297); details: in words; no experiment described; cited from earlier work
# nAChR subtype alpha3beta2, sequence (P32297 32-505): as the sequence (P32297 32-505) above
# nAChR subtype alpha3beta2, sequence (P17787 26-502): as the sequence (P17787 26-502) above
# [14] = listed as Compound 1 citrate, mono-citrate
# [15] = test concentrations 0.1-300 uM, ACh 1280 uM reference
# [16] = listed as Compound 1 hemi-galactarate dihydrate, dihydrate
molecule,measurement,setting,value
c1cnc2cc3c(cc2n1)[C@@H]1CNC[C@H]3C1 [varenicline],agonist character at nAChR alpha3beta4,human alpha3beta4 nAChR [1],partial agonist
same,agonist character at nAChR alpha4beta2,human alpha4beta2 nAChR [2],partial agonist
same,agonist character at nAChR alpha7,human alpha7 nAChR [3],full agonist
same,"effect on the subsequent ACh-evoked current, alpha4alpha6beta2",[4]; after the agonist concentration series,significant inhibition of the subsequent ACh-evoked current
same,"response compared to the ACh response, alpha4alpha6beta2",[4]; concentrations from 0.1 uM to 300 uM,≤ 6%
same,agonist character at nAChR alpha4alpha6beta2,[4],weak partial agonist
same,agonist character at nAChR alpha6beta2,[5],partial agonist
same,agonist character at nAChR alpha3alpha5beta4,[6],partial agonist
[Cl][Cu][Cl] [copper chloride],cellular viability at 72 hours post-drug exposure,Caco-2 cells; copper chloride concentrations of less than 1 uM,no significant impact on cellular viability
same,cellular viability at 72 hours post-drug exposure,Caco-2 cells; exposures greater than 1 uM copper chloride,Some cellular toxicity
same,"percentage of Caco-2 cells infected with SARS-CoV-2, concentration dependence",SARS-CoV-2,dose-dependent decrease
"C(=C\[C@H]1CCNC1)/c1cncnc1 [compound 1 citrate, (R)-5-((E)pyrrolidin-3-ylvinyl)pyrimidine mono-citrate]",agonist character at nAChR alpha3beta4,human alpha3beta4 nAChR [1]; [14],almost as a full agonist
same,"effect on the subsequent ACh-evoked current, alpha4beta2",human alpha4beta2 nAChR [2]; mono-citrate,Significant inhibition of the current evoked by the second Ach exposure
same,agonist character at nAChR alpha4beta2,human alpha4beta2 nAChR [2]; [14],almost as a full agonist
same,"current evoked at 300 uM, percent of the maximal ACh-evoked current, alpha7",human alpha7 nAChR [3]; [14],25%
same,"current evoked at 300 uM, percent of the maximal ACh-evoked current, alpha7",human alpha7 nAChR [3]; mono-citrate,25%
same,agonist character at nAChR alpha7,human alpha7 nAChR [3]; [14],poor agonist
same,agonist character at nAChR alpha7,human alpha7 nAChR [3]; mono-citrate,weak partial agonist
same,agonist character at nAChR alpha4alpha6beta2,[4]; [14],almost as a full agonist
same,EC50,[6]; ACh 1280 uM reference,83 ± 9.05 µM
same,agonist character at nAChR alpha3alpha5beta4,[6]; [14],almost as a full agonist
varenicline tartrate [reference compound],agonist character at nAChR alpha3beta4,human alpha3beta4 nAChR [1],partial agonist
same,EC50 at nAChR alpha3beta4,human alpha3beta4 nAChR [1]; [15],low micromolar range
same,"effect on the subsequent ACh-evoked current, alpha4beta2",human alpha4beta2 nAChR [2],major inhibition of the subsequent ACh-evoked current
same,agonist character at nAChR alpha4beta2,human alpha4beta2 nAChR [2],partial agonist
same,agonist character at nAChR alpha4beta2,human alpha4beta2 nAChR [2]; listed as Varenicline tartrate,very poor agonist
same,EC50 at nAChR alpha4beta2,human alpha4beta2 nAChR [2]; [15],low micromolar range
same,"inhibition of ACh-evoked current on sustained exposure, alpha3beta4",human alpha3beta4 nAChR [7],very modest effect; also recorded: no significant inhibition
same,"current evoked by sustained exposure, alpha3beta4",human alpha3beta4 nAChR [8],larger current amplitude; also recorded: rather large response
same,cellular viability at 72 hours post-drug exposure,Caco-2 cells; even at 100 uM varenicline tartrate,no significant impact on cellular viability
same,infection rate of the cells without copper chloride,"SARS-CoV-2; 0.1 uM and 0.5 uM varenicline tartrate, 24 hours, MOI 3, normalized to untreated (FIG. 3)",~100%
same,"percentage of Caco-2 cells infected with SARS-CoV-2, concentration dependence",SARS-CoV-2,dose-dependent decrease
same,agonist character at nAChR alpha3alpha5beta4,[6],partial agonist
same,EC50 at nAChR alpha3alpha5beta4,[6]; [15],low micromolar range
"C(=C\[C@H]1CCNC1)/c1cncnc1 [compound 1 hemi-galactarate dihydrate, (R)-5-((E)-2-pyrrolidin-3-ylvinyl)pyrimidine hemigalactarate dihydrate]",agonist character at nAChR alpha3beta4,human alpha3beta4 nAChR [1]; [16],almost as a full agonist
same,"current evoked, percent of the maximal ACh-evoked currents, alpha3beta4",human alpha3beta4 nAChR [1]; maximal response,about 94%
same,"effect on the subsequent ACh-evoked current, alpha4beta2",human alpha4beta2 nAChR [2]; dihydrate,enhanced the subsequent ACh-evoked currents
same,agonist character at nAChR alpha4beta2,human alpha4beta2 nAChR [2]; [16],more potent agonist than ACh
same,"evoked currents larger than the maximal ACh responses, alpha4beta2",human alpha4beta2 nAChR [2]; relative to maximal ACh response,about 2 fold
same,"current evoked at 300 uM, percent of the maximal ACh-evoked current, alpha7",human alpha7 nAChR [3]; dihydrate,24%
same,agonist character at nAChR alpha7,human alpha7 nAChR [3]; dihydrate,poor agonist
same,agonist character at nAChR alpha7,human alpha7 nAChR [3]; [16],more potent agonist than ACh
same,"inhibition of ACh-evoked current on sustained exposure, alpha3beta4",human alpha3beta4 nAChR [7]; dihydrate,insensitive; also recorded: no significant inhibition
same,"inhibition of ACh-evoked current on sustained exposure, alpha3alpha5beta4",[9],marked inhibition; also recorded: inhibits in a concentration-dependent manner
same,"inhibition of ACh-evoked current on sustained exposure, alpha4beta2",human alpha4beta2 nAChR [10],marked inhibition; also recorded: inhibits in a concentration-dependent manner
same,"inhibition of ACh-evoked current on sustained exposure, alpha7",human alpha7 nAChR [11],insensitive; also recorded: no significant inhibition
same,EC50,[6]; ACh 1280 uM reference,32.1 ± 2.16 µM
same,agonist character at nAChR alpha3alpha5beta4,[6]; [16],almost as a full agonist
same,"current evoked, percent of the maximal ACh-evoked currents, alpha3alpha5beta4",[6]; maximal response,about 94%
"C(=C\[C@H]1CCNC1)/c1cncnc1 [Compound 1, (R)-5-((E)-2-pyrrolidin-3-ylvinyl)pyrimidine]",agonist character at nAChR alpha3beta4,human alpha3beta4 nAChR [1],full agonist
same,agonist character at nAChR alpha4beta2,human alpha4beta2 nAChR [2],full agonist
same,agonist character at nAChR alpha7,human alpha7 nAChR [3],full agonist; also recorded: weak partial agonist
same,agonist character at nAChR alpha4alpha6beta2,[4],full agonist
same,"AUC % Extrap, Max","[12]; Day 29, N=7",41.1%
same,"AUC % Extrap, Mean","[12]; Day 29, N=7",21.3%
same,"AUC % Extrap, Median","[12]; Day 29, N=7",23.3%
same,"AUC % Extrap, Min","[12]; Day 29, N=7",3.69% and 3.67%
same,detection in plasma ten minutes after administration,"[12]; Day 29, 7 subjects",detected in plasma from all subjects
same,fraction cleared from systemic circulation before the next administration,"[12]; if administered every 12 hours (4 half-lives), from maximum half-life 2.83 h",> 94%
same,agonist character at nAChR alpha3beta2,[13],partial agonist
same,agonist character at nAChR alpha3alpha5beta4,[6],full agonist
